Source: US8901317B2, “Tryptamine derivatives, their preparation and their use in gastropathy” (Council of Scientific & Industrial Research, priority 2010, dated 2014)

Experiments:
[1] = Ferric reducing antioxidant power (FRAP) assay
Procedure: The antioxidant property of different tryptamine derivatives were assessed and compared with the known antioxidants for potency. […] The FRAP assay is based on the measurement of the ability of the substance to reduce Fe^3+ to Fe^2+, greater the reducing ability greater the anti oxidant property. Antioxidants reduce Fe^3+-TPTZ in to blue colored Fe^2+-TPTZ complex, which results in an increase in the absorbance at 595 nm giving a FRAP value. […] Absorbance changes at different time intervals (FIG. 6) as well as at different concentrations (FIG. 7) at time 6 min in the presence of different compounds at 595 nm were measured. FRAP values at 6 min and 65 min were calculated from different tryptamine derivatives and some known antioxidant (Table 1). […] DPPH assay based on the DPPH free radicals scavenging power of the antioxidant molecules. Higher the scavenging power higher will be the antioxidant property.
The assay was performed in a 96-well microplate. FRAP reagent was prepared by mixing of 10 ml acetate buffer (200 mM, pH-3.6), 1 ml of 2,4,6-tris(2-pyridyl)-s-triazine (TPTZ) solution (10 mM in 40 mM HCl) and 1 ml of ferric chloride solution (20 mM) in distilled water. For 1 h the mixture was kept in a water bath at 37° C. In 96-well microplates, 25 μL of the compounds under investigation dissolved (in methanol, some compound dissolved in water) at different concentrations in the range 1-25 μM was placed in triplicate and freshly prepared FRAP solution (175 μL) was added to this sample. A micro plate reader monitored the absorbance at 595 nm at different time intervals for up to 150 min. The absorbance of a mixture 175 μL TRAP sol and 25 μL methanol or water was taken which was subtracted from the absorbance of the samples at each time interval to calculate the absorbance change (ΔA). The FRAP value at time interval t (FRAP valuet) was calculated according to the formula: FRAP valuet(M)=(ΔatFl/ΔatFe^2+)×10^−5 Where ΔatFl is the absorbance change after the time interval t (6 and 65 min) relative to the tested flavonoid at the concentration of 10 μM and ΔatFe^2+ is the absorbance change at the same time interval relative to ferrous sulfate at the same concentration (Pal, C; et al. Free Radic Biol Med, 49(2), 258-267, 2010, Firuzi, O; et al. Biochim. Biophys. Acta 1721:174-184; 2005).

[2] = system: Ethanol-induced gastric mucosal injury; test: Ethanol-induced gastric mucosal injury; assay type: in vivo, Sprague-Dwaley rats; settings: 1 ml of 50% ethanol oral; rats
[3] = system: free iron; test: Free iron (Phen Green SK); assay type: cell-based, rat; settings: in vitro cultured cell
Procedure: Isolated mucosal cells from both control and indomethacin-treated cultured gastric mucosa were used for free iron localization using Phen Green SK, an iron-sensitive fluorescence probe following the protocol as described in the product catalogue (Maity, P.; et al. J. Biol. Chem. 284:3058-3068; 2009). Cells were first incubated with Phen Green SK (20 μm) for 15 min at 37° C. in the dark. After the incubation, cells were washed with HBSS and used for fluorescence microscopy (Leica, DM-2500, Leica Microsystems). Staining of pheen Green SK was visualized using green filter.

O=C(NCCc1c[nH]c2ccc(O)cc12)c1cc(O)c(O)c(O)c1 [Compound 3a, 3,4,5-trihydroxy-N-(2-(5-hydroxy-1H-indol-3-yl)ethyl)benzamide]
FRAP Value6 min (μM) M ± SD ([1]; 6 min, compound at 10 μM relative to ferrous sulfate): 39.51 ± 2.7 µM
FRAP Value65 min (μM) M ± SD ([1]; 65 min, compound at 10 μM relative to ferrous sulfate): 60.61 ± 7.3 µM
reducing ability (Fe^3+ to Fe^2+) / antioxidant property in words ([1]; compared to other tryptamine derivatives and known antioxidants): greater reducing ability
gastroprotective effect in ethanol induced gastropathy [2]: protects the gastric mucosa
intramitochondrial iron chelation (Phen Green SK) [3]: chelates the intramitochondrial iron
